Source: US20220257552A1, “METHODS OF PRESCREENING AND TREATING BREAST CANCERS WITH SELECTIVE ANDROGEN RECEPTOR MODULATORS” (priority 2021, published 2022)

Columns and labels:
Assay type in all cases: cell-based
PR = target: T1, PR (Rattus norvegicus, UniProt Q63449); assay: PR transactivation in HEK-293 cells
T1 construct: expressed in transfected cells
T1 sequence (Q63449 1-923): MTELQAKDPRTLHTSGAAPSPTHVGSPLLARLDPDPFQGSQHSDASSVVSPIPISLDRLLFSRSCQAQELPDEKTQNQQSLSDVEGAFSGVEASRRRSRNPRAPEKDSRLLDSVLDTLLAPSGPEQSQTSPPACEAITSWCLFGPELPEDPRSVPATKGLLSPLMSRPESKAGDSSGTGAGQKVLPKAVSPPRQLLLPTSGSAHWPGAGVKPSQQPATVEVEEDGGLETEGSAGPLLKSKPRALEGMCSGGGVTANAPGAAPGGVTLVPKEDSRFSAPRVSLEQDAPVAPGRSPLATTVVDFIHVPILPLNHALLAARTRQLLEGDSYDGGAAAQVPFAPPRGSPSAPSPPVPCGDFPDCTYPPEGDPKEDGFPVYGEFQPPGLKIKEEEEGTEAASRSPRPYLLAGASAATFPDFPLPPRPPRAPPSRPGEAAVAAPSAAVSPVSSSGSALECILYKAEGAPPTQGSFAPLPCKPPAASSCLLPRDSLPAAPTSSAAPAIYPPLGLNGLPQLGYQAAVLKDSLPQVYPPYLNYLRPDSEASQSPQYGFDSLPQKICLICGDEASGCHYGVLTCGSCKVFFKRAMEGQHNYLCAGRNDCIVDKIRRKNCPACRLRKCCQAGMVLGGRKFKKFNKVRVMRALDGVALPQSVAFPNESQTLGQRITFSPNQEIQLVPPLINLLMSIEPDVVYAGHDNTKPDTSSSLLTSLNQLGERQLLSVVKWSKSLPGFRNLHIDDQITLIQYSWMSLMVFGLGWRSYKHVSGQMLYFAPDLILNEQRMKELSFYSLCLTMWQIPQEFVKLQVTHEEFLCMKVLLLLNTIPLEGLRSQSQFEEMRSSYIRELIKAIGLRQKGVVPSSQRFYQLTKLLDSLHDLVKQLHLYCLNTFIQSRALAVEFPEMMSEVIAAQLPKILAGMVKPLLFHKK
Method: (§1) Rat GR, MR, PR, ER-α and ER-β were individually cloned into a pCR3.1 vector backbone. Sequencing was performed to verify the absence of any mutations. HEK-293 cells were plated at 90,000 cells per well of a 24 well plate in Dulbecco's Minimal Essential Media supplemented with 5% charcoal-stripped FBS. […] Luciferase assays were performed 48 h after transfection. Transcriptional activation values are represented as firefly luciferase normalized to renilla luciferase.

MR = target: T2, MR (Rattus norvegicus, UniProt P22199); assay: MR transactivation in HEK-293 cells; conditions: 1 nM
T2 construct: expressed in transfected cells
T2 sequence (P22199 1-981): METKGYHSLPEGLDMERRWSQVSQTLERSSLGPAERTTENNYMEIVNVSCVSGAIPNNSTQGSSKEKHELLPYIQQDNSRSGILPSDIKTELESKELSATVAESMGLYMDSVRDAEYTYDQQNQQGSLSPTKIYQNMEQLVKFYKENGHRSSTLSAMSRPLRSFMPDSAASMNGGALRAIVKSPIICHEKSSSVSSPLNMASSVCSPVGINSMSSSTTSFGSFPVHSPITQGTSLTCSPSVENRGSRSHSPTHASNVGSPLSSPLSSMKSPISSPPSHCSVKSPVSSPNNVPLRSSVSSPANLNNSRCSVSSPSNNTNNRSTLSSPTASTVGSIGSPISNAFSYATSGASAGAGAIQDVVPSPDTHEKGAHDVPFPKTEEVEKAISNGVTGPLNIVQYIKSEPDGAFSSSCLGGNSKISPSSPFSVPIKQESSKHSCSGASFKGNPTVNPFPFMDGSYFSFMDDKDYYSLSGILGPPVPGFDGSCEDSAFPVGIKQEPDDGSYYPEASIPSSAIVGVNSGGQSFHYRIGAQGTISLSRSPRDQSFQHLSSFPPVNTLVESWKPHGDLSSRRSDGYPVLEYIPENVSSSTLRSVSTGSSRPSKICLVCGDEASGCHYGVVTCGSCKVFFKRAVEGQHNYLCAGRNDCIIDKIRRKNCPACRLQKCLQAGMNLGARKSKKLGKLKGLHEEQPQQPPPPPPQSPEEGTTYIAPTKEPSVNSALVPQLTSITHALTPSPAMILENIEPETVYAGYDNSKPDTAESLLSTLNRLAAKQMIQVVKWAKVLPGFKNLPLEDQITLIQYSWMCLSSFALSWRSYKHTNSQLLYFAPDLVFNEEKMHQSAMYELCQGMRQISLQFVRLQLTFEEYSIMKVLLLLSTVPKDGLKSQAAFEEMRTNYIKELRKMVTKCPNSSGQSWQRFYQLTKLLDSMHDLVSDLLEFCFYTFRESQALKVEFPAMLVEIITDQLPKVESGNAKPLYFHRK
Method: as §1

HCI-13 tumor fragments = assay: HCI-13 ex vivo sponge culture, real time PCR; conditions: for reversal of pS2 gene expression inhibited by Formula IX: 100 nM PMA or 100 ng/mL EGF before 1 μM Formula IX
Method: HCI-13 tumors grown in female mice were allowed to reach 500-1000 mm^3 before the animals were sacrificed and the tumors were excised to be used for sponge culture. Patient specimens frozen in liquid nitrogen in freezing medium were used for sponge culture. […] Tumors were sliced into small pieces (˜1 mm^3) and incubated on pre-soaked gelatin sponges (5 fragments/sponge) in 12 well plates containing 1.5 mL medium (MEM+10% FBS+2 mM L-glutamine+10 μg/mL insulin+10 μg/mL hydrocortisone+penicillin:streptomycin). The cultures were performed in triplicates for HCI-13 and singly for patient specimens. Pooled samples (n=5/sponge) from each sponge constituted one sample. Tissues were harvested after 3 days of treatment, RNA extracted, and expression of various genes measured. Although the same procedure was adopted for specimens obtained from breast cancer patients, the specimens were cultured singly (n=5/sponge=one sample) and not in triplicates as performed for HCI-13.

[1] = system: HCC-38 triple negative breast cancer cells; assay: SRB cell viability, HCC-38 cells infected with AR adenovirus; conditions: 3 days
Method: (§2) The SRB assay was used to determine cell number during cytotoxocity experiments. The following protocol was used: • 1. Cells were detached with 0.25% trypsin. • 2. Experimental cultures were cultured in 96-well microtiter plates (200 μL growth medium per well; 1,000-200,000 cells per well). • 3. Cultures were fixed with 50 μL 50% TCA (4° C.). (see cell fixation protocol for details). • 4. Fixed cells were stained with 50 μL 0.4% (wt/vol) SRB in 1% acetic acid for 10 minutes. • 5. SRB was removed and the cultures were quickly* rinsed 5 times with 1% acetic acid to remove unbound dye.** • 6. Cultures were air-dried overnight until there was no visible moisture. • 7. The cellular protein-bound SRB was dissolved with 200 μL unbuffered Tris base (10 mM, pH 10.5) for 30 minutes on a rocking platform shaker. • 8. Absorbance was read at 540 nm. * quickly performing rinsing process was to prevent desorption of protein-bound SRB ** completely removed residual wash solution by sharply flicking plates over sink.
The following protocol was used for fixing cells: • a. 50 μL of 50% TCA (4° C.) was gently layered on the top of growth medium in each well to make a final TCA concentration of 10%. • b. Cultures were incubated at 4° C. for 1 hour. • c. Cultures were washed 5 times with tap water to remove TCA, growth medium, low-molecular-weight metabolites, and serum protein. • d. […]

[2] = system: MDA-MB-231 triple negative breast cancer cells; assay: SRB cell viability, MDA-MB-231 cells infected with AR adenovirus
Method: as §2
The following protocol was used for fixing cells: • a. 50 μL of 50% TCA (4° C.) was gently layered on the top of growth medium in each well to make a final TCA concentration of 10%. • b. Cultures were incubated at 4° C. for 1 hour. • c. Cultures were washed 5 times with tap water to remove TCA, growth medium, low-molecular-weight metabolites, and serum protein. • d. Plates were air-dried until there was no visible moisture.
Cells were treated in charcoal stripped FBS (FIGS. 4A, 4C, 4E, 4G, 4I, 4K, 4M and 4O) or full serum (FIGS. 4B, 4D, 4F, 4H, 4J, 4L, 4N and 4P) for 3 days, fixed and stained with […] (SRB) to measure cell viability. Anti-proliferative IC50 values were calculated in breast cancer cells and compared to transactivation values, i.e., EC50 (agonists) and IC50 (antagonists) values, generated in HEK-293 cells.

MDA-MB-231-AR cells = assay: Morphology of MDA-MB-231-AR cells; conditions: 3 days
Method: MDA-MB-231 cells were stably transfected with AR using lentivirus. […] Live cells were visualized using a light-microscope and photographed. The cells were imaged at the same magnification and under the same microscopic conditions.
MDA-MB-231 cells were stably transfected with AR using lentivirus and were treated with vehicle or AR agonists at the indicated concentrations. At the end of 3 days of incubation, the cells were imaged under a microscope (40×).

## CC(=O)[C@H]1CC[C@H]2[C@@H]3CCC4=CC(=O)CC[C@]4(C)[C@H]3CC[C@]12C [Progesterone, progesterone, reference compound]
PR; 1 nM
  PR activation: 23 folds

## C[C@]12CCC(=O)C=C1CC[C@@H]1[C@@H]2[C@@H](O)C[C@]2(C=O)[C@@H](C(=O)CO)CC[C@@H]12 [aldosterone, reference compound]
MR
  MR activity, induction: 60 fold

## EGF: epidermal growth factor
HCI-13 tumor fragments
  reversal of pS2 gene expression inhibited by Formula IX: only marginally reversed

## C[C@@](O)(COc1ccc(C#N)cc1)C(=O)Nc1ccc(C#N)c(C(F)(F)F)c1 [R-enantiomer of Formula IX, (R)—N-(4-cyano-3-(trifluoromethyl)phenyl)-3-(4-cyanophenoxy)-2-hydroxy-2-methylpropanamide]
PR
  IC50: 1690 nM

## CC#C[C@]1(O)CC[C@H]2[C@@H]3CCC4=CC(=O)CCC4=C3[C@@H](c3ccc(N(C)C)cc3)C[C@@]21C [RU486, reference compound]
PR
  IC50: 0.048 nM

## CCCCCCCCCCCCCC(=O)O[C@@H]1[C@@H](C)[C@@]2(O)[C@@H](C=C(CO)C[C@]3(O)C(=O)C(C)=C[C@@H]23)[C@@H]2C(C)(C)[C@]12OC(C)=O [PMA, phorbol 12-myristate 13-acetate]
HCI-13 tumor fragments
  reversal of pS2 gene expression inhibited by Formula IX: completely reversed

## C[C@]12CCC(=O)C[C@@H]1CC[C@@H]1[C@@H]2CC[C@]2(C)[C@@H](O)CC[C@@H]12 [DHT, 5α-dihydrotestosterone, reference compound]
[1]
  cell growth: inhibited
HCI-13 tumor fragments; 10 nM DHT, 1 μM Formula IX, 100 nM fulvestrant, 3 days
  inhibition of ER-induced pS2 and PR gene expression: effective
HCI-13 tumor fragments; 3 days
  AR-target gene FKBP5 expression: induced
  MKI67 expression: inhibited
[2]; AR-positive cells, 10 μM bicalutamide
  growth inhibitory effects in the presence of bicalutamide: weakened growth inhibitory effects
[2]; cells with AR, 3 days, SRB
  cell growth: inhibited
MDA-MB-231-AR cells
  cell morphology: altered the morphology into a more anchored phenotype
